Laboratory results as given in article PMC11672562, “Synthesis and Antibacterial Activity of New 6″-Modified Tobramycin Derivatives” (Antibiotics, 2024).
In brackets after ≈: the same amount, converted by molar mass. Where two headings read alike, the source gives them in different places. Each block holds one compound with its values, some of them ahead of it.

What was measured:
[1] = test system: E. coli S30 Extract System, firefly luciferase synthesis; assay: Cell-free translation inhibition assay (firefly luciferase synthesis); format: biochemical; details: final concentration of 2 μM; water = 100
Method: The inhibitory effects of the tested compounds on in vitro firefly luciferase synthesis were evaluated using the E. coli S30 Extract System for Linear Templates (Promega, Madison, WI, USA), as described previously. Briefly, reaction mixtures with a total volume of 5 μL were prepared, containing 0.1 mM of a mixture of all canonical amino acids, 4 U of RiboLock RNase Inhibitor (Thermo Fisher Scientific, Waltham, MA, USA), and 2 μM of the tested compounds. After pre-incubation at room temperature for 5 min, 100 ng of in vitro-transcribed firefly luciferase mRNA was added. The mixtures were then incubated at 37 °C for 20 min. After incubation, each reaction was supplemented with 5 μL of Bright-Glo™ reagent (Promega, Madison, WI, USA), and chemiluminescence was measured using a VICTOR X5 Multilabel Plate Reader (PerkinElmer, Waltham, MA, USA). The luminescence values were normalized to the negative control (water), which was assigned 100% activity.

S. aureus ATCC 29213 = assay: MIC, broth microdilution, S. aureus ATCC 29213; format: cell-based
Method: (§1) The microbial strains used in this study were obtained from the collection of the Gause Institute of New Antibiotics. […] Storage was carried out in accordance with CLSI guidelines. Prior to experimentation, the bacterial strains were revived from cryopreservation by inoculating them onto trypticase soy agar (Becton, Dickinson, France) and incubating at (36 ± 1) °C for 16–24 h. Individual morphologically homogeneous colonies were then suspended in sterile physiological saline, and the turbidity of the suspension was adjusted to 0.5 McFarland units using a DEN-1 spectrophotometer (Biosan, Riga, Latvia), which corresponds to a concentration of 1.5 × 10^8 CFU/mL.
(§2) The samples were dissolved in sterile distilled water or dimethyl sulfoxide (DMSO), depending on the physicochemical properties of the compounds under investigation, to a concentration of 10,000 µg/mL.
(§3) Activity was evaluated by determining the minimum inhibitory concentration (MIC) values using the microdilution method in Mueller–Hinton Broth (Beckton and Dickinson, Le Pont-de-Claix, France), in accordance with the standard procedure for assessing the antimicrobial susceptibility of microorganisms.
(§4) The analysis was conducted in 96-well microtiter plates (Medpolymer, Saint Petersburg, Russia). The bacterial inoculum was introduced within 15 min of preparation. […] Microbial growth in the presence of the tested compounds was compared to the growth control (without exposure to the test samples). The MIC was defined as the lowest concentration at which visible microbial growth was inhibited.
(§5) The MIC values of the reference strains were required to fall within the acceptable ranges specified in [30], provided that standard assay conditions were maintained.

M. smegmatis ATCC 607 = assay: MIC, broth microdilution, M. smegmatis ATCC 607; format: cell-based; details: Table 1
Method: as §1, §2, §3, §4

[2] = test system: E. coli JW5503 kanS EF-G P610L; assay: MIC in LB medium, aminoglycoside-resistant mutant EF-G P610L; format: cell-based; details: 18 h
Method: (§6) The determination of the minimum inhibitory concentration (MIC) was performed on three strains from the working collection of MSU: E. coli JW5503 [34], which lacked a kanamycin resistance cassette removed as per the method outlined in [39], and two strains derived from this strain through in vivo selection with kanamycin. The latter strains harbored P610T and P610L substitutions in the fusA gene. For the MIC determination, 100 μL (rows 2–11) and 200 μL (row 1) of LB liquid medium containing a 1:1000 dilution of overnight culture was added to each well of a 96-well transparent plate. Subsequently, 2 μL of a 50 μg/mL antibiotic solution was introduced into the first row, and serial two-fold dilutions were performed across each horizontal row, decreasing the antibiotic concentration incrementally. The final two rows were designated as controls: row 12 contained LB medium without cells or antibiotics, and row 11 contained cells without antibiotics. Following 18 h of incubation at 37 °C with constant agitation, the optical density at 590 nm (A590) was measured using a Victor X5 2030 spectrofluorometer (PerkinElmer, Waltham, MA, USA). The MIC was defined as the antibiotic concentration in the first well where no cell growth occurred. Each experiment was conducted in triplicate for all tested antibiotics.

[3] = test system: E. coli JW5503 kanS EF-G P610T; assay: MIC in LB medium, aminoglycoside-resistant mutant EF-G P610T; format: cell-based; details: 18 h
Method: as §6

E. coli JW5503 = assay: MIC, broth microdilution, E. coli JW5503; format: cell-based; details: E. coli JW5503; Table 1
Method: as §1, §2, §3, §4

E. coli ATCC 25922 = assay: MIC, broth microdilution, E. coli ATCC 25922; format: cell-based
Method: as §1, §2, §3, §4, §5

[4] = test system: E. coli JW5503 transformed with pJC27 plasmids; assay: Translation accuracy reporter (mutant β-galactosidase, X-Gal staining); format: cell-based; details: 4a,b, 6a,b and tobramycin 50 mg/mL; streptomycin, kanamycin 5 mg/mL; rifampicin 1 mg/mL
Description: It is known that tobramycin inhibits protein biosynthesis by the blocking of initiation and inducing translation errors. We have tested whether the new tobramycin derivatives 4a,b and 6a,b retain the ability to induce translation errors. This assay uses an E. coli strain with a plasmid construct that encodes beta-galactosidase in such a way that a functional protein is only synthesized in the presence of translation errors. If the mechanism of action of the antibiotic is related to the translation errors, we observe indigo blue staining along the edge of the inhibition zone because functional b-galactosidase degrades the substrate X-Gal. As a result, if the antibiotic causes translation errors, blue staining forms around the edge of the inhibition zone. […] According to this, an introduction at the 6″-position of the aminoalkylamino or guanidinoalkylamino residues of tobramycin retains an original mechanism of aminoglycoside’s antibacterial activity affecting the protein synthesis.
To qualitatively evaluate translation accuracy in the presence of antibiotics, E. coli JW5503 [34] (kanamycin resistance cassette removed as per) transformed with pJC27 plasmids was utilized. The plasmids encode the β-galactosidase gene containing a mutation in its active center (E537: GAA→GAC/GGG), alongside a control plasmid without the mutation. Active β-galactosidase synthesis could only occur if translation errors were introduced. Petri dishes (9 cm) containing 20 mL of solid LB agar (1.5%) supplemented with chloramphenicol (11.3 μg/mL) and X-Gal (80 μg/mL) were prepared. A secondary layer comprising 3.5 mL of LB agar (0.6%), supplemented with 11.3 μg/mL chloramphenicol and 0.5 mL of liquid culture (A600~1.0), was added and allowed to solidify. Antibiotics were applied to the plates in 1 μL aliquots at the following concentrations: 50 mg/mL for 4a, 4b, 6a, 6b, and tobramycin; 5 mg/mL for streptomycin and kanamycin; and 1 mg/mL for rifampicin. Plates were incubated at 37 °C for 18 h. […] Results were documented using a Samsung Galaxy Tab A71 camera.

E. coli JW5503 kanS = assay: MIC in LB medium, E. coli JW5503 kanS; format: cell-based; details: 18 h
Method: as §6

P. aeruginosa ATCC 27853 = assay: MIC, broth microdilution, P. aeruginosa ATCC 27853; format: cell-based
Method: The microbial strains used in this study were obtained from the collection of the Gause Institute of New Antibiotics. […] Storage was carried out in accordance with CLSI guidelines.
as §3, §4, §5

[5] = test system: resistant clinical isolates of P. aeruginosa; assay: MIC against resistant clinical isolates of P. aeruginosa; format: cell-based; details: Pseudomonas aeruginosa, P. aeruginosa strain
Method: as §1, §2, §3, §4

[6] = quality control, must fall in acceptable ranges of [30]

Compound: kanamycin A [reference compound]
% control signal (relative maximal rate of firefly luciferase accumulation in vitro) [1]: 0.1%
MIC (S. aureus ATCC 29213; Table 1): 0.5 µg/mL
MIC of control antibiotic (S. aureus ATCC 29213; [6]): 1 to 4 µg/mL
MIC (M. smegmatis ATCC 607): 0.125 µg/mL
MIC ([2]; E. coli JW5503 kanS EF-G P610L, LB medium): 80 µg/mL
MIC ([3]; E. coli JW5503 kanS EF-G P610T, LB medium): 80 µg/mL
MIC (E. coli JW5503): 1 µg/mL
MIC (E. coli ATCC 25922; Table 1): 1 µg/mL
MIC of control antibiotic (E. coli ATCC 25922; [6]): 1 to 4 µg/mL
induction of translation errors (blue staining at edge of inhibition zone) [4]: acted as miscoding inductors
MIC (E. coli JW5503 kanS; E. coli JW5503 kanS, LB medium): 5 µg/mL
MIC (P. aeruginosa ATCC 27853; P. aeruginosa ATCC 27853, Table 1): >32 µg/mL
MIC (P. aeruginosa ATCC 27853; P. aeruginosa ATCC 27853, Table 1, listed as kanamycin): > 32 µg/mL

MIC ([5]; Table 2 column 3, head prints 27853): 16 µg/mL (≈ 36.7 µM)
MIC ([5]; Table 2 column 4, head prints 27853): 8 µg/mL (≈ 18.4 µM)
MIC ([5]; Table 2 column 5, head prints 27853): 32 µg/mL (≈ 73.5 µM)
MIC ([5]; Table 2 column 6, head prints 27853): 16 µg/mL (≈ 36.7 µM)
MIC ([5]; Table 2 column 7, head prints 27853): 16 µg/mL (≈ 36.7 µM)
MIC (P. aeruginosa ATCC 27853; Pseudomonas aeruginosa, ATCC27853, P. aeruginosa ATCC 27853, Table 2, read-out: MIC): 4 µg/mL (≈ 9.19 µM)
Compound: C[C@H]1[C@H](NC(=O)/C(=N\OC(C)(C)C(=O)O)c2csc(N)n2)C(=O)N1S(=O)(=O)O [Aztreonam, aztreonam, reference compound]

Compound: CC[C@H]1OC(=O)[C@H](C)[C@@H](O[C@H]2C[C@@](C)(OC)[C@@H](O)[C@H](C)O2)[C@H](C)[C@@H](O[C@@H]2O[C@H](C)C[C@H](N(C)C)[C@H]2O)[C@](C)(O)C[C@@H](C)C(=O)[C@H](C)[C@@H](O)[C@]1(C)O [Erythromycin, erythromycin, reference compound]
% control signal (relative maximal rate of firefly luciferase accumulation in vitro) [1]: 0.8%
MIC ([2]; Escherichia coli): 2 µg/mL (≈ 2.73 µM)
MIC ([3]; Escherichia coli): 2 µg/mL (≈ 2.73 µM)
MIC (E. coli JW5503 kanS; Escherichia coli, JW5503KANS): 2 µg/mL (≈ 2.73 µM)

Compound: CO[C@H]1/C=C/O[C@@]2(C)Oc3c(C)c(O)c4c(O)c(c(/C=N/N5CCN(C)CC5)c(O)c4c3C2=O)NC(=O)/C(C)=C\C=C\[C@H](C)[C@H](O)[C@@H](C)[C@@H](O)[C@@H](C)[C@H](OC(C)=O)[C@@H]1C [Rifampicin, rifampicin, reference compound]
% control signal (relative maximal rate of firefly luciferase accumulation in vitro) [1]: 87%
MIC ([2]; Escherichia coli): 5 µg/mL (≈ 6.08 µM)
MIC ([3]; Escherichia coli): 5 µg/mL (≈ 6.08 µM)
induction of translation errors (blue staining at edge of inhibition zone) [4]: does not induce ribosomal errors
MIC (E. coli JW5503 kanS; Escherichia coli, JW5503KANS): 5 µg/mL (≈ 6.08 µM)

Compound: [H]/N=C(/N)N[C@H]1[C@H](O)[C@@H](O)[C@H](O[C@@H]2O[C@@H](C)[C@](O)(C=O)[C@H]2O[C@@H]2O[C@@H](CO)[C@H](O)[C@@H](O)[C@@H]2NC)[C@@H](N/C(N)=N\[H])[C@@H]1O [streptomycin, reference compound]
induction of translation errors (blue staining at edge of inhibition zone) [4]: acted as miscoding inductors
